Source: article PMC10650486, “Fluoroquinolone-Based Organic Salts (GUMBOS) with Antibacterial Potential” (International Journal of Molecular Sciences, 2023)
Counter-ions that a name gives are not always drawn. Like-named read-outs stand apart in the source and are kept apart here.

Experiments:
[1] = Thermogravimetric analysis (TGA), thermal stability; format: physicochemical; details: for Tonset / Tpeak / Tstart: 10 °C min^−1, N2 atmosphere; for Residue at 500 °C: mass residue remaining at 500 °C; for Tpeak: temperature at highest degradation rate; for Tstart: temperature where weight loss starts
Experimental: Thermogravimetric analysis (TGA) was executed using a Hi-Res modulated TGA 2950 thermogravimetric analyzer (TA Instruments, New Castle, DE, USA) and curves were obtained for all GUMBOS. Approximately 1-3 mg of GUMBOS was placed in a platinum pan and heated from 25 °C to 575 °C at a slow heating rate of 10 °C min^-1. Some characteristic parameters were extrapolated. For DSC and TGA, onset temperatures (Tonset) were determined as the temperature value matching the intersection point of the extrapolated initial baseline and the tangent or line through the linear section of the leading edge of the Tpeak point where the Tpeak was the temperature value at the highest degradation rate. For TGA, additional data were collected such as the temperature value where weight loss starts ([…]), and the percentage of mass residue remaining at 500 °C which allows evaluation of the short-term stability. All these parameters were extrapolated using the software NETZSCH Proteus® version 6.1081 (Netzsch-Gerätebau GmbH, Selb, Germany) for DSC analysis and Universal Analysis 2000 version 4.5A (TA Instruments-Waters LLC, New Castle, DE, USA) for TGA analysis.

[2] = test system: Staphylococcus aureus subsp. aureus Rosenbach ATCC 25923; test: Antibacterial susceptibility testing, broth microdilution, bacterial growth by absorbance at 630 nm; format: cell-based
Experimental: To evaluate the antimicrobial profile, a study was performed using the broth microdilution standard method with minor modifications using DMSO as solvent. Standard laboratory strains of Gram-positive Staphylococcus aureus subsp. aureus Rosenbach ATCC 25923 and Gram-negative Escherichia coli O157:H7 were studied. TSB was used as the culture medium for bacteria and samples with bacteria in media were considered positive controls.
Antibacterial activity of GUMBOS was evaluated by comparing it with negative controls, as well as with the antibacterial activity of the parent compounds, [Cip][HCl] and [Mox][HCl]. […] These values are determined through laboratory testing and can vary depending on the testing methodology and conditions, thus the range increase in this study to 25 mg·L^−1. Stock solutions were prepared using water for water-soluble compounds while non-water soluble compounds were reconstituted using a deionized water solution containing 5% DMSO [96]. Following that, the compounds were diluted using fresh tryptic soy broth (TSB) to achieve desired concentrations. Initially, agar media was used to grow additional bacteria to correlate absorbance readings to microbial counts. Then, a solution of 0.1 mL of S. aureus added to 10 mL of TSB was incubated at 37 °C for 24 h and repeated for three more days until enough bacteria was obtained. After centrifugation and washing steps with PBS (1×) solution until obtaining a homogenized pellet, the inoculum was then diluted to 0.06 absorbance at 630 nm or 0.5 McFarland [97]. After compounds were diluted in TSB, 100 μL of samples with 100 μL of S. aureus inoculum were then transferred to a 96-well flat bottom microtitre plate (TPP, Switzerland) which was sealed and left in incubation at 37 °C for 24 h. Absorbance was read at 630 nm with a BioTek universal microplate reader (Agilent Technologies, VT, USA) to determine the turbidity in the wells [97, 98]. Three wells were prepared per sample. To ensure the viability and growth of bacteria in the culture media, negative controls were conducted along with a positive culture using the media containing only the bacteria. [Cip][HCl] served as the reference antibacterial agent.

[3] = Octanol/water partition coefficient, shake-flask method; format: physicochemical; details: for logKO/W ± SD: octanol/water, shake-flask, mean ± standard deviation
Experimental: Following synthesis and structural characterization of FQ-based GUMBOS, octanol/water partition coefficient (Ko/w) values were obtained through a shake-flask method with minor modifications. Initially, water and 1-octanol were saturated by agitation for 24 h at room temperature. GUMBOS were solubilized in 5 mL of water-saturated octanol (Ci), to which an equivalent volume of octanol-saturated water was added. This solution subjected to 24 h of agitation and the absorbance of the upper layer was measured at a wavelength of 280 nm. Sample concentration in octanol (Co) was determined through a calibration curve, which was created using six solutions of different concentrations (4–30 μmol·L^−1) of GUMBOS in 1-octanol. Later, GUMBOS concentration in water (Cw) were obtained by the following equation Ci − C0 = Cw. Octanol/water partition coefficient (Ko/w) values were then calculated using Ko/w = Co/Cw. Data were representative of three replicates executed for each of the GUMBOS.

[4] = TGA, parent compound; cited from earlier work
[5] = 0.25 mg·L^−1, 24 h exposure, Figure 4a
[6] = 25 mg·L^−1, 24 h exposure, Figure 4b

Structure (SMILES) | Tonset [1] | Residue at 500 °C [1] | Tpeak [1] | Tstart [1] | antibacterial performance (bacterial growth) against S. aureus [2, 5] | antibacterial performance (bacterial growth) against S. aureus [2, 6] | logKO/W ± SD [3] | Tonset [4] | Tpeak [4] | Tstart [4] | relative hydrophobicity from log KO/W ([3]; ranking within the [Cip]-based or [Mox]-based GUMBOS)
CCCCC(CC)COC(=O)CC(C(=O)OCC(CC)CCCC)S(=O)(=O)O.COc1c(N2C[C@@H]3CCCN[C@@H]3C2)c(F)cc2c(=O)c(C(=O)O)cn(C3CC3)c12 [[Mox][Doc]] | 271.04 °C | 33.55% | 275.90 °C | 249.91 °C | activities closer to their precursor | significant differences from their corresponding precursors |  |  |  |  | 
O=C(O)c1cn(C2CC2)c2cc(N3CCNCC3)c(F)cc2c1=O.O=S(=O)(NS(=O)(=O)C(F)(F)F)C(F)(F)F [[Cip][NTF2]] | 287.79 °C | 39.88% | 295.18 °C | 263.57 °C | activities closer to their precursor |  | 0.145 ± 0.075 |  |  |  | 
O=C(O)c1cn(C2CC2)c2cc(N3CCNCC3)c(F)cc2c1=O.O=S(=O)(NS(=O)(=O)C(F)(F)C(F)(F)F)C(F)(F)C(F)(F)F [[Cip][BETI]] | 284.61 °C | 35.43% | 294.04 °C | 266.25 °C |  |  | −0.314 ± 0.094 |  |  |  | 
COc1c(N2C[C@@H]3CCCN[C@@H]3C2)c(F)cc2c(=O)c(C(=O)O)cn(C3CC3)c12.O=S(=O)(NS(=O)(=O)C(F)(F)C(F)(F)F)C(F)(F)C(F)(F)F [[Mox][BETI]] | 307.46 °C | 32.31% | 322.97 °C | 266.98 °C |  |  |  |  |  |  | 
COc1c(N2C[C@@H]3CCC[NH2+][C@@H]3C2)c(F)cc2c(=O)c(C(=O)O)cn(C3CC3)c12.c1ccc([B-](c2ccccc2)(c2ccccc2)c2ccccc2)cc1 [[Mox][TPB]] | 176.37 °C | 42.13% | 177.21 °C | 144.02 °C | activities closer to their precursor | significant differences from their corresponding precursors |  |  |  |  | 
COc1c(N2C[C@@H]3CCCN[C@@H]3C2)c(F)cc2c(=O)c(C(=O)O)cn(C3CC3)c12.C[C@H](CCC(=O)O)[C@H]1CC[C@H]2[C@@H]3CC[C@@H]4C[C@H](O)CC[C@]4(C)[C@H]3C[C@H](O)[C@]12C [[Mox][Dxc]] | 275.22 °C | 15.60% | 284.97 °C | 208.92 °C |  |  |  |  |  |  | 
COc1c(N2C[C@@H]3CCCN[C@@H]3C2)c(F)cc2c(=O)c(C(=O)O)cn(C3CC3)c12 [[Mox][HCl], moxifloxacin hydrochloride monohydrate] |  |  |  |  |  |  |  | 240 °C | 260 °C | 220 °C | 
CCCCC(CC)COC(=O)CC(C(=O)OCC(CC)CCCC)S(=O)(=O)O.O=C(O)c1cn(C2CC2)c2cc(N3CCNCC3)c(F)cc2c1=O (stereo not shown) [[Cip][Doc]] | 286.49 °C | 24.26% | 286.64 °C | 252.18 °C |  |  | 0.162 ± 0.015 |  |  |  | most hydrophobic
O=C(O)c1cn(C2CC2)c2cc(N3CCNCC3)c(F)cc2c1=O [[Cip][HCl], Ciprofloxacin hydrochloride monohydrate] |  |  |  |  |  |  |  | 300 °C | 318 °C | 150 °C | 
